Test results as given in patent US20250213560A1, “NITROGEN-CONTAINING HETEROCYCLIC COMPOUNDS HAVING PHENYL GROUP AND USES THEREOF” (BNH RESEARCH CO., LTD., priority 2022, published 2025).

Columns and labels:
293T cells = experiment: Cytotoxicity test (CCK-8 cell viability) in 293T cells; format: cell-based, human; conditions: 293T cell line
Method: Human undifferentiated neuroblastoma cell line SH-SY5Y and human embryonic kidney cell line (HEK)-293T were purchased from Korean Cell Line Bank (Korea) and Takara (Japan), respectively. Cells were grown in HyClone Minimal Essential Medium (MEM) and Dulbecco's Modified Eagle Medium (DMEM), respectively, supplemented with 10% (v/v) fetal bovine serum (FBS), penicillin (100 U/mL), and streptomycin ([…]). Cells were maintained in a humidified atmosphere of 95% air and 5% CO2 at 37° C. Cells were passaged 10 times at maximum. Cells were dissociated using 0.05% trypsin-EDTA solution and the cells were seeded in new culture dishes for maintenance.
To examine the cytotoxicity of compounds described herein in human cell lines, SH-SY5Y and 293T cells were used. Approximately 8,000 cells (for 293T) and 15,000 cells (for SH-SY5Y) were plated per well of a 96-well plate (SPL Life Sciences Co., Ltd., Pocheon, Korea). After incubating at 37° C. for 24 hours in a humidified atmosphere containing 5% CO2, the culture medium was replaced by a series of concentrations of test compounds diluted in the corresponding culture medium.
The time of co-incubation was 24 hours and six replicates were made for each measurement. Finally, 10 μL of CCK-8 reagent (Dojindo Laboratories, Rockville, MD) was added to each well, and after incubation at 37° C. for 3 minutes, the OD at 450 nm was measured using a multifunction microplate reader (Tecan Infinite M200 Pro). These measurements were compared to that of a control and expressed as a percentage of the control to calculate cell viability. The IC50 value was calculated using SPSS software. To do this, the absorbance of the blank wells with only growth medium is subtracted from the values or the wells with cells. The readout value of background (vehicle) was set as a 100% viability, and then the percent viability for each test solution was calculated.
The data was presented as the mean value and standard error of the mean (S.E.M.). Statistical analysis was performed with the one-way ANOVA with Tukey's post hoc test (GraphPad Prism 5 software package, version 5.02, GraphPad Software Inc. USA). Significance was accepted at p<0.05.
The cytotoxicity of the compound was evaluated by treating cells with BnH12003 and measuring cell viability.
By treating cells with various BnH12 series compounds and measuring cell viability using the experimental procedure described in Example 2, the cytotoxicity of the compounds was evaluated.

GluN2B = GluN2B protein expression by Western blot in primary cortical neuron cells; format: cell-based, mouse; conditions: for GluN2B expression effect (in words): compared to vehicle / other compounds, Table 5; for Western blot results Mean (GluN2B expression): relative value, vehicle set to 1, primary cortical neurons treated for 24 hours
Method: Meanwhile, primary cortical neuron cells were isolated from cerebral cortices of 18-day-old mouse fetuses, incubated in prep media (composition (mM): NaCl 107.5, NaH2PO4 1, NaHCO333.5, glucose 11, HEPS 1%, penicillin-streptomycin 1%) containing 0.25% trypsin and DNasel for 30 minutes, dissociated into single cells, and seeded. Primary cortical neuron cells were grown in Neurobasal medium supplemented with 1% (v/v) B27, 1% penicillin (100 U/mL), streptomycin ([…]), and 1% Glutamax. Cells were maintained in a humidified atmosphere of 95% air and 5% CO2 at 37° C. Drug efficacy was evaluated after culturing primary cortical neuron cells for 14 days.
The amount of GluN2B reacted with the compound of the present disclosure was measured using Western blot. The fetal cerebral cortex was extracted from mice at 17 days of gestation, dissociated into single cells, cultured for 13 days, and treated with BnH drugs for 24 hours. The drug-treated cells were subjected to protein lysate preparation using RIPA protein lysis buffer containing protease and phosphatase inhibitors. The protein concentration was determined using a BCA protein assay kit (Pierce Biotechnology) using bovine serum albumin as a standard. Equal amounts of protein (20 μg per lane) were separated by electrophoresis on SDS-polyacrylamide gels at 90 V for 2 hours, then transferred from the SDS-polyacrylamide gel to PVDF membrane at 100 V for 1 hour. Then, primary reaction with GluN2B antibody (ab65783, Abcam) was performed at 4° C. for 1 day, washed three times at 10-minutes intervals with 1×PBT, and secondary reaction was performed with anti-mouse antibody (sc-2357, Santa Cruz) for 1 hour, followed by washing three times at 10-minutes intervals with 1×PBT. Western blotting was performed as described above to confirm GluN2B protein expression. Subsequently, each blot was re-probed using anti-β-actin antibody (sc-47778, Santa Cruz). Housekeeping protein B-actin was detected as a normalization control.
The increase and decrease of BnH12 series were confirmed by setting the vehicle to 1 (N for each group was 3 or more).
Using the experimental procedure described in Example 3, it was determined whether various BnH12 series compounds increase GluN2B expression, and the results are shown in Table 5. These in vitro experimental results are expressed as relative values to the group (vehicle) that was not treated with the compound, with the effect of the group set to 1.

SMILES	Cell viability test results (CCK) 10 uM (293T cells) [%<]	Cell viability test results (CCK) 100 uM (293T cells) [%<]	GluN2B expression effect (in words) (GluN2B)	Western blot results Mean (GluN2B expression) (GluN2B)
C[C@H]1CC[C@@H](C(=O)O)CN1C(=O)Cc1ccc(-c2cccnc2)cc1 [BnH12046, (3R,6S)-6-methyl-1-(2-(4-(pyridin-3-yl)phenyl)acetyl) piperidine-3-carboxylic acid]	95	90	excellent effects	2.102
C[C@H]1CC[C@@H](C(=O)O)CN1C(=O)Cc1ccc(-c2cnccn2)cc1 [BnH12047, (3R,6S)-6-methyl-1-(2-(4-(pyrazin-2-yl)phenyl)acetyl) piperidine-3-carboxylic acid]	99	99	–	1.554
C[C@H]1CC[C@@H](C(=O)O)CN1C(=O)Cc1ccc(-c2ncccn2)cc1 [BnH12048, (3R,6S)-6-methyl-1-(2-(4-(pyrimidin-2-yl)phenyl)acetyl) piperidine-3-carboxylic acid]	95	80	–	1.071
C[C@H]1CC[C@@H](C(=O)O)CN1C(=O)Cc1ccc(-c2nccn2C)cc1 [BnH12053, sodium (3R,6S)-6-methyl-1-(2-(4-(1-methyl-1H-imidazol-2-yl)phenyl)acetyl) piperidine-3-carboxylate]	95	95	–	1.652
C[C@H]1CC[C@@H](C(=O)O)CN1C(=O)Cc1ccc(-c2cnco2)cc1 [BnH12057, (3R,6S)-6-methyl-1-(2-(4-(oxazol-5-yl)phenyl)acetyl) piperidine-3-carboxylic acid]	95	55	excellent effects	2.241
C[C@H]1CC[C@@H](C(N)=O)CN1C(=O)Cc1ccc(-c2ncccn2)cc1 [BnH12058, (3R,6S)-6-methyl-1-(2-(4-(pyrimidin-2-yl)phenyl)acetyl) piperidine-3-carboxamide]	99	90	–	1.54
C[C@@H]1CC[C@H](C(=O)O)CN1C(=O)Cc1ccc(-c2cccnc2)cc1 [BnH12066, (3S,6R)-6-methyl-1-(2-(4-(pyridin-3-yl)phenyl)acetyl) piperidine-3-carboxylic acid]	99	90	–	1.514
C[C@@H]1CC[C@H](C(=O)O)CN1C(=O)Cc1ccc(-c2cnccn2)cc1 [BnH12067, (3S,6R)-6-methyl-1-(2-(4-(pyrazin-2-yl)phenyl)acetyl) piperidine-3-carboxylic acid]	99	85	excellent effects	2.565
C[C@@H]1CC[C@H](C(=O)O)CN1C(=O)Cc1ccc(-c2cncnc2)cc1 [BnH12071, (3S,6R)-6-methyl-1-(2-(4-(pyrimidin-5-yl)phenyl)acetyl) piperidine-3-carboxylic acid]	80	75	–	1.799
C[C@H]1CC[C@@H](C(=O)O)CN1C(=O)Cc1ccc(-c2cccc([N+](=O)[O-])c2)cc1 [BnH12072, (3R,6S)-6-methyl-1-(2-(3′-nitro-8 1,l′-biphenyl9-4-yl)acetyl) piperidine-3-carboxylic acid]	90	80	–	1.822
C[C@H]1CC[C@@H](C(=O)O)CN1C(=O)Cc1cccc(-c2ccccc2)c1 [BnH12078]	90	75	–	1.017
C[C@H]1CC[C@@H](C(=O)O)CN1C(=O)Cc1ccc(-c2ccc(C3CCCCC3)cc2)cc1 [BnH12085, (3R,6S)-1-(2-(4′-cyclohexyl-8 1,l′-biphenyl9-4-yl)acetyl)-6-methylpiperidine-3-carboxylic acid]	30	0	–	1.557
C[C@H]1CC[C@@H](C(=O)O)CN1C(=O)Cc1ccc(-c2ccc(N)cc2)cc1 [BnH12086, (3R,6S)-1-(2-(4′-amino-8 1,l′-biphenyl9-4-yl)acetyl)-6-methylpiperidine-3-carboxylic acid]	80	70	–	1.753
C[C@H]1CC[C@@H](C(=O)O)CN1C(=O)Cc1ccc(-c2cccc(N)c2)cc1 [BnH12088, (3R,6S)-1-(2-(3′-amino-8 1,l′-biphenyl9-4-yl)acetyl)-6-methylpiperidine-3-carboxylic acid]	90	90	–	1.219
C[C@H]1CC[C@@H](C(=O)O)CN1C(=O)Cc1ccc(-c2ccc(-c3cccnc3)cc2)cc1 [BnH12089, (3R,6S)-6-methyl-1-(2-(4'-(pyridin-3-yl)-[1,1'-biphenyl]-4-yl)acetyl)piperidine-3-carboxylic acid]	65	55	–	1.409
CCN(CC)c1ccc(-c2ccc(CC(=O)N3C[C@H](C(=O)O)CC[C@@H]3C)cc2)cc1 [BnH12090, (3R,6S)-1-(2-(4′-(diethylamino)-8 1,1′-biphenyl9-4-yl)acetyl)-6-methylpiperidine-3-carboxylic acid]	85	30	–	1.698
C[C@H]1CC[C@@H](C(=O)O)CN1C(=O)Cc1cccc(-c2ccncc2)c1 [BnH12091, (3R,6S)-6-methyl-1-(2-(3-(pyridin-4-yl)phenyl)acetyl) piperidine-3-carboxylic acid]	95	85	excellent effects	5.013
COc1ccc(-c2cccc(CC(=O)N3C[C@H](C(=O)O)CC[C@@H]3C)c2)cn1 [BnH12092, (3R,6S)-1-(2-(3-(6-methoxypyridin-3-yl)phenyl)acetyl)-6-methylpiperidine-3-carboxylic acid]	90	75	excellent effects	3.524
C[C@H]1CC[C@@H](C(=O)O)CN1C(=O)Cc1cccc(-c2ncc(F)cn2)c1 [BnH12093, (3R,6S)-1-(2-(3-(5-fluoropyrimidin-2-yl)phenyl)acetyl)-6-methylpiperidine-3-carboxylic acid]	85	80	–	1.611
